From patent publication US5536497A, “Fimbrial polypeptides useful in the prevention of periodontitis” (priority 1992, dated 1996)
Read-outs that look alike come from different tables or passages of the source. Square brackets hold non-standard residues; d marks the D form. Peptide text beside a SMILES is read from it. * marks the point of attachment. Sta = CC(C)C[C@H](N)[C@@H](O)CC(=O)O; Isovaleryl = CC(C)CC(=O)*

B1: Trypsin, bovine pancreas type XIII-TPCK: trypsin from bovine pancreas, type XIII, TPCK treated (protein, UniProt P00760 24-246, looked up)
Serine protease 1: IVGGYTCGANTVPYQVSLNSGYHFCGGSLINSQWVVSAAHCYKSGIQVRLGEDNINVVEGNEQFISASKSIVHPSYNSNTLNNDIMLIKLKSAASLNSRVASISLPTSCASAGTQCLISGWGNTKSSGTSYPDVLKCLKAPILSDSSCKSAYPGQITSNMFCAGYLEGGKDSCQGDSGGPVVCSGKLQGIVSWGSGCAQKNKPGVYTKVCNYVSWIKQTIASN
modifications: TPCK treated

Tested on: P. gingivalis 2561 binding to sHAP beads
Assay: microbe, parasite or virus in culture
Type: cell-based, Porphyromonas gingivalis
[1] = Table 2, amount 0.1 mg, minus = enhancement of binding

Molecule	Inhibition (%) [1] [%]	also measured
c1cnc2c(c1)ccc1cccnc12 [1,10-Phenanthroline]	–	inhibition at 1000 µM (Porphyromonas gingivalis): -8%
O=C[C@H](O)[C@@H](O)[C@@H](O)[C@H](O)C(=O)O [D-Galacturonic acid]	21	–
O=C[C@H](O)[C@@H](O)[C@H](O)[C@H](O)C(=O)O [D-Glucuronic acid]	33	–
O=C(O)CN(CCN(CC(=O)O)CC(=O)O)CC(=O)O [EDTA]	–	Inhibition (%): 24
C[C@H](O)[C@@H](O)[C@@H](O)[C@H](O)C=O [Fucose]	1	–
N[C@H]1C(O)O[C@H](CO)[C@H](O)[C@@H]1O (some centres unmarked) [Galactosamine]	8	–
O=C[C@H](O)[C@@H](O)[C@@H](O)[C@H](O)CO [Galactose]	-7	–
N[C@H]1C(O)O[C@H](CO)[C@@H](O)[C@@H]1O (some centres unmarked) [Glucosamine]	0	–
O=C[C@H](O)[C@@H](O)[C@H](O)[C@H](O)CO [Glucose]	-10	–
N=C(N)NCCC[C@H](N)C(=O)O [L-Arginine]	0	–
NCCCC[C@H](N)C(=O)O [L-Lysine]	5	–
OC[C@H]1O[C@@H](O[C@H]2[C@H](O)[C@@H](O)C(O)O[C@@H]2CO)[C@H](O)[C@@H](O)[C@H]1O (some centres unmarked) [Lactose]	-1	–
CC(=O)N[C@@H](CC(C)C)C(=O)N[C@@H](CC(C)C)C(=O)N[C@H](C=O)CCCNC(=N)N [Leupeptin]	–	inhibition at 2 µM (Porphyromonas gingivalis): 19%
OC[C@H]1O[C@H](O[C@H]2[C@H](O)[C@@H](O)[C@H](O)O[C@@H]2CO)[C@H](O)[C@@H](O)[C@@H]1O [Maltose]	-8	–
O=C[C@@H](O)[C@@H](O)[C@H](O)[C@H](O)CO [Mannose]	-15	–
CC(=O)N[C@H]1C(O)O[C@H](CO)[C@H](O)[C@@H]1O (some centres unmarked) [N-Acetylgalactosamine]	-5	–
CC(=O)N[C@H]1C(O)O[C@H](CO)[C@@H](O)[C@@H]1O (some centres unmarked) [N-Acetylglucosamine]	-15	–
CC(C)CC(=O)N[C@H](C(=O)N[C@H](C(=O)N[C@@H](CC(C)C)[C@@H](O)CC(=O)N[C@@H](C)C(=O)N[C@@H](CC(C)C)[C@@H](O)CC(=O)O)C(C)C)C(C)C [Pepstatin] (Isovaleryl-VV[Sta]A[Sta]-OH)	–	inhibition at 1 µM (Porphyromonas gingivalis): -10%
O=S(=O)(F)Cc1ccccc1 [Phenylmethylsulfonyl fluoride]	–	Inhibition (%) (Table 2, conc. 2 mM): 13%
CC(=O)N[C@H]1[C@H]([C@H](O)[C@H](O)CO)OC(O)(C(=O)O)C[C@@H]1O (some centres unmarked) [Sialic acid (N-acetyl neuraminic acid), N-acetyl neuraminic acid]	28	–
Defatted BSA: defatted BSA, agent tested in Table 2	–	Inhibition (%) (Table 2, amount l mg): 43%
N-Acetyl neuramin-lactose	2	–
Poly-L-lysine	–	Inhibition (%) (Table 2, amount 0.25 mg): 41%
poly-2,8-N-acetyl neuraminic acid	13	–
B1	–	Inhibition (%) (Table 2, amount 100 U): 53%; Reduction of P. gingivalis binding after pretreatment of sHAP beads (sHAP beads pretreated with enzyme prior to being mixed with P. gingivalis cells): approximately 50%
